# Where two headings read alike, the source gives them in different places.
# Tests used:
# [1] = target: T1, YAP-WW1-WW2 tandem construct (human YAP residues 165–271) (Homo sapiens, UniProt P46937); experiment: Isothermal titration calorimetry of peptide ligands with the YAP-WW1-WW2 tandem; type: binding; details: ITC, 25°C; for n (number of binding sites): 40 mM sodium phosphate pH 7.0 (10 mM β-mercaptoethanol for LATS2), binding model for one set of sites
# T1 construct: residues 165–271 for tandem construct (YAP-WW1-WW2); poly-histidine (N, cleaved yes); GST (N, cleaved yes); made in house; host or cells: E. coli BL21 (DE3)
# T1 sequence (P46937 165-271): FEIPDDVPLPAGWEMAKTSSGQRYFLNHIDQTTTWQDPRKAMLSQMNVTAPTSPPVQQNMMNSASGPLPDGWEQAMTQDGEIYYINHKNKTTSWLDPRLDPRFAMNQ
# [2] = target: T2, YAP-WW1 (first WW domain of human YAP, residues 165–209) (Homo sapiens, UniProt P46937); experiment: Isothermal titration calorimetry of peptide ligands with isolated YAP-WW1; type: binding; details: ITC, 25°C; for n (number of binding sites) / Kd: 40 mM sodium phosphate pH 7.0 (10 mM β-mercaptoethanol for LATS2), one set of identical sites model, at least two experiments; for n (number of binding sites): variability about 1%; for Kd: variability about 10%; for -T·ΔSap / ΔGap / ΔHap: pH 7.0, one set of sites model; for ΔHap: variability about 5%
# T2 construct: residues 165–209 for the first WW domain of human YAP (YAP-WW1); poly-histidine (N, cleaved yes); GST (N, cleaved yes); made in house; host or cells: E. coli BL21 (DE3)
# T2 sequence (P46937 165-209): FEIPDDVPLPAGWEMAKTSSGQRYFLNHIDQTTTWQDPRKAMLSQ
# Method: (§1) ITC experiments were carried out using a high-precision VP-ITC titration calorimeter (Microcal Inc., Northampton, Massachusetts). The WW domains were extensively dialyzed against 40 mM sodium phosphate buffer, pH 7.0, with the exception of those experiments using the LATS2 ligand, (containing a cysteine residue), for which the dialysis was performed in the presence of 10mM β-mercaptoethanol to reduce intermolecular di-sulphide bonds formed during ligand storage. Protein and peptide solutions, ranging from 20 to 40 μM for the proteins and from 0.8 to 2 mM for the ligands, were properly degassed to avoid bubble formation and equilibrated to 25°C prior to the titration experiment. In all cases, a profile of injection volumes from 3 to 20 μl was used to better define the titration curve. The heat evolved after each peptide injection was obtained from the integral of the calorimetric signal. The heat associated with the binding process was obtained as the difference between the heat of reaction and the corresponding heat of dilution, as obtained from independent titrations of the peptides into the buffer.
# (§2) For the individual WW domains and those ligands with similar binding affinities for YAP-WW1 and YAP-WW2 domains (LATS1-a and LATS2), the resulting binding isotherms were analyzed by non-linear least-squares fittings to a model corresponding to a single set of identical sites, according to the equation:
# (§3) Q=V0ΔH/2Ka[1+Ka[Lt]+nKa[Mt]+(1+Ka[Lt]+nKa[Mt])^2−4nKa2[Mt][Lt]] (equation 2)
# (§4) , where Q is the net heat of binding, n is the number of binding sites, ΔH is the change in the enthalpy due to the binding process, Ka is the association constant, V0 is the active cell volume, and [Mt] and [Lt] are the total concentrations of macromolecule and the ligand, respectively.
# (§5) Both models were implemented in Origin 7.0 software (OriginLab Corporation, Northampton, MA). For the least-squares fit using the one set of sites model, the number of binding sites, the association constant, and the binding enthalpy were considered as floating parameters, while in the analysis with the two set of sites model, only the two association constants and the two binding enthalpies were left to float. All experiments were performed at least twice. Typically, the variability of the experimental values was estimated to be about 1% in the number of binding sites, 5% in the binding enthalpy and 10% in the binding affinity.
# [3] = target: T3, YAP-WW2 (second WW domain of human YAP, residues 228–271) (Homo sapiens, UniProt P46937); experiment: Isothermal titration calorimetry of peptide ligands with isolated YAP-WW2; type: binding; details: ITC, 25°C; for n (number of binding sites) / Kd: 40 mM sodium phosphate pH 7.0 (10 mM β-mercaptoethanol for LATS2), one set of identical sites model, at least two experiments; for n (number of binding sites): variability about 1%; for Kd: variability about 10%, n.b. = no binding detected; for -T·ΔSap / ΔGap / ΔHap: pH 7.0, one set of sites model; for ΔHap: variability about 5%
# T3 construct: residues 228–271 for the second WW domain (YAP-WW2); poly-histidine (N, cleaved yes); GST (N, cleaved yes); made in house; host or cells: E. coli BL21 (DE3)
# T3 sequence (P46937 228-271): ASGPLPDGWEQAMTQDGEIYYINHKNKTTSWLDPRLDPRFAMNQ
# Method: as §1, §2, §3, §4, §5
# YAP-WW1 domain = experiment: Phage ELISA of YAP-WW2-selected clones, displacement of p53BP2 from YAP-WW1; type: binding, human; details: YAP-WW1 compared with YAP-WW2
# Method: The analysis of the binding preferences of the WW domains was performed by phage-display as previously described. Briefly, an N-term library in PIII was generated using a template derived from the pS2202d phagemid, containing the Erbin-PDZ domain kindly provided by Dr. Sachdev Sidhu (University of Toronto). The Erbin-PDZ sequence was removed by the introduction of four stop codons between the secretion signal and the linker required for the correct display of the library variants in the phage. A randomized sequence corresponding to a x5(L/P)PxYx5 peptide library containing the L/PPxY core motif for type 1 WW domains was subsequently introduced into the modified phagemid. The resulting library was then introduced into the SS320 strain by electroporation. The subsequent phage propagation led to 10^11 library diversity, which was isolated at 5 x 10^13 phages/ml in PBS-Tween (0.05%) buffer. The resulting library was then screened against immobilized GST-tagged YAP-WW2 domain (GST-YAP-WW2) in PBS, carrying out seven rounds of an iterative selection process. Single clones were chosen from round 3 to round 7 and tested for specific binding to the GST-YAP-WW2 by phage ELISA in a Tecan Infinite M200 instrument. […] The DNA from phages showing binding in the ELISA assay were used as PCR templates to amplify the peptide-encoding regions, which were then sequenced and analyzed.
# [4] = pH 7.0, binding model for one set of sites
# [5] = pH 7.0, model of two different sets of sites, n fixed to 1 each, first set of sites (first line)
# [6] = pH 7.0, model of two different sets of sites, n fixed to 1 each, second set of sites (second line)
# [7] = pH 7.0, two sets of sites model, n fixed to 1, first set of sites
# [8] = pH 7.0, two sets of sites model, n fixed to 1, second set of sites
Compound,n (number of binding sites) [1],"-T·ΔSap [1, 4] [kcal/mol]","Kd [1, 4] [µM]","ΔGap [1, 4] [kcal/mol]","ΔHap [1, 4] [kcal/mol]",n (number of binding sites) [2],Kd [2] [µM],-T·ΔSap [2] [kcal/mol],ΔGap [2] [kcal/mol],ΔHap [2] [kcal/mol],n (number of binding sites) [3],Kd ([3]; read-out: Kd) [µM],-T·ΔSap [3] [kcal/mol],ΔGap [3] [kcal/mol],ΔHap [3] [kcal/mol],"Kd [1, 5] [µM]","Kd [1, 6] [µM]","-T·ΔSap [1, 7] [kcal/mol]","ΔGap [1, 7] [kcal/mol]","ΔHap [1, 7] [kcal/mol]",other results
CC(=O)N[C@@H](CC(N)=O)C(=O)N[C@@H](CCCNC(=N)N)C(=O)N[C@@H](CCC(N)=O)C(=O)N1CCC[C@H]1C(=O)N1CCC[C@H]1C(=O)N1CCC[C@H]1C(=O)N1CCC[C@H]1C(=O)N[C@@H](Cc1ccc(O)cc1)C(=O)N1CCC[C@H]1C(=O)N[C@@H](CC(C)C)C(=O)N[C@H](C(=O)N[C@@H](C)C(N)=O)[C@@H](C)O [LATS1-a],2.04,11.1,33.4,-6.12,-17.2,0.96,21.5,9.63,-6.38,-16,1.09,27,12,-6.24,-18.2,–,–,–,–,–,–
CC(=O)N[C@@H](CCCNC(=N)N)C(=O)N[C@@H](Cc1ccc(O)cc1)C(=O)N[C@@H](CO)C(=O)N1CCC[C@H]1C(=O)N1CCC[C@H]1C(=O)N1CCC[C@H]1C(=O)N1CCC[C@H]1C(=O)N[C@@H](Cc1ccc(O)cc1)C(=O)N[C@@H](CO)C(=O)N[C@@H](CO)C(=O)N[C@@H](Cc1c[nH]cn1)C(=O)N[C@@H](CO)C(N)=O [PTCH1-a],–,–,–,–,–,0.95,27.6,9.3,-6.24,-15.5,0.91,45.8,9.82,-5.93,-15.8,24.7,47.4,6.33,-6.31,-12.6,"-T·ΔSap [1, 8]: 12.1 kcal/mol; ΔGap [1, 8]: -5.9 kcal/mol; ΔHap [1, 8]: -18 kcal/mol"
AGRPPPPPYPGPPL,–,–,–,–,–,–,–,–,–,–,–,–,–,–,–,–,–,–,–,–,Interaction with the two WW domains of YAP (ELISA binding experiments) (YAP-WW1 domain): seems to interact similarly with the two WW domains of YAP
Ac-EGLWPPPYRPRR-NH2 [PTCH1-b],–,12.6,16.9,-6.52,-19.2,1.09,13.2,11.3,-6.67,-18,–,–,–,–,–,–,–,–,–,–,Kd [3]: no interaction was detected and n.b.
Ac-RRCPPPPYPKHL-NH2 [LATS2],2.02,9.56,9.2,-6.88,-16.4,1.05,7.1,11.9,–,-18.8,1.08,8.2,6.86,-6.96,-13.8,–,–,–,–,–,–
Ac-YQGPPPPYPKHL-NH2 [LATS1-b],–,–,–,–,–,0.91,3.7,9.08,-7.41,-16.5,0.94,33.9,10.7,-6.12,-16.8,4.8,31.9,9.66,-7.27,-16.9,"-T·ΔSap [1, 8]: 6.24 kcal/mol; ΔGap [1, 8]: -6.14 kcal/mol; ΔHap [1, 8]: -12.4 kcal/mol"

# — publication PMC4301871, “WW Domains of the Yes-Kinase-Associated-Protein (YAP) Transcriptional Regulator Behave as Independent Units with Different Binding Preferences for PPxY Motif-Containing Ligands” (PLoS ONE, 2015)
